Experimental data from US6693123B2 (University of Pittsburgh, priority 1995, dated 2004).
Structures can show the parent of a compound that is named as a salt.

What follows are compounds tested against T1, Rat brain protein farnesyltransferase (Rattus norvegicus, UniProt Q02293+Q04631) (assay: In vitro inhibition of protein farnesyltransferase, Amersham scintillation proximity assay with biotin-K Ras B fragment). Conditions: Inhibition of farnesyltransferase; compound at 1 × 10^−6 M (Table 2).
T1 construct: The enzyme is purified according to Reiss, Y., et al., Cell, 62: 81-88 (1990), utilizing steps one through three; from tissue; host or cells: rat brain
Type: biochemical
Text: The ability of the compounds of the invention to inhibit protein farnesyltransferase or protein geranylgeranyltransferase can be measured according to the method of Moores, et al., J. Biol. Chem. 266: 14603 (1991) or the method of Vogt, et al., J. Biol. Chem. 270:660-664 (1995). In addition, procedures for determination of the inhibition of farnesylation of the oncogene protein Ras are described by Goldstein, et al., J. Biol. Chem., 266:15575-15578 (1991) and by Singh in U.S. Pat. No. 5,245,061.
In addition, in vitro inhibition of protein farnesyltransferase may be measured by the following procedure. Rat brain protein farnesyltransferase activity is measured using an Amersham Life Science commercial scintillation proximity assay kit and substituting a biotin-K Ras B fragment (biotin-[…]Ue-Met-CO2H), 0.1 mM final concentration, for the biotin-lamin substrate provided by Amersham. The enzyme is purified according to Reiss, Y., et al., Cell, 62: 81-88 (1990), utilizing steps one through three. […]
The % inhibition of protein farnesyltransferase was determined for representative compounds of the invention.

Compound	% inhibition at 1 × 10^−6 M
CSCCC(NC(=O)c1ccc(C=Cc2cccnc2)cc1-c1ccccc1C)C(=O)NS(=O)(=O)c1ccc(C)cc1 (stereo not shown) [Example 277, {4-[2-(Pyrid-3-yl)ethenyl]-2-(2-methylphenyl)benzoyl}methionine 4-Tolylsulfonamide]	98%
CSCC[C@H](NC(=O)c1ccc(C=Cc2cccnc2)cc1-c1ccccc1C)C(=O)OCOC(C)=O [Example 295]	94%
CSCC[C@H](NC(=O)c1ccc(C=Cc2cccnc2)cc1-c1ccccc1C)C(=O)OCOC(=O)C(C)(C)C [Example 296]	89%

Same assay, conditions: Inhibition of farnesyltransferase; compound at 1 × 10^−6 M (Table 2); read-out: % inhibition at 1 × 10^−6 M

Compound	inhibition at 1 µM
CC1(C)O[C@H](c2cccnc2)[C@@H](c2ccc(C(=O)N[C@@H](CCS(C)(=O)=O)C(=O)O)c(-c3ccccc3)c2)O1 [Example 222, N-{4-[2,2-Dimethyl-4-(3-pyridyl)-1,3-dioxolan-5-yl-]-2-phenylbenzoyl}-2-amino-4-methanesulfonylbutanoic Acid]	41%
CCCC(=O)OC(c1cccnc1)C(OC(=O)CCC)c1ccc(C(=O)N[C@@H](CCS(C)(=O)=O)C(=O)O)c(-c2ccccc2)c1 (stereo partly shown) [Example 223]	63%
CSCC[C@H](NC(=O)c1ccc(CNCc2c[nH]cn2)cc1-c1ccccc1)C(=O)O [Example 225, [4-(1H-Imidazol-4-ylmethylaminomethyl)-2-phenylbenzoyl]methionine]	93%
CCc1nc(NC(=O)c2ccc(COc3cccnc3)cc2-c2ccccc2)sc1C(=O)O [Example 228]	39%
CSCC[C@H](NC(=O)c1ccc(CSCc2c[nH]cn2)cc1-c1ccccc1)C(=O)O [Example 242, [4-(1H-Imidazol-4-ylmethylthiomethyl)-2-phenylbenzoyl]methionine]	99%
CSCC[C@H](NC(=O)c1ccc(COc2cccnc2)cc1-c1ccccc1)C(=O)NS(C)(=O)=O [Example 250, [4-(3-Pyridyloxymethyl)-2-phenylbenzoyl]methionine Methylsulfonimide]	96%
CSCC[C@H](NC(=O)c1ccc(COc2cccnc2)cc1-c1ccccc1C)C(=O)NS(C)(=O)=O [Example 252, [4-(3-Pyridyloxymethyl)-2-(2-methylphenyl)benzoyl]methionine Methylsulfonimide]	98%
CSCC[C@H](NC(=O)c1ccc(COc2cccnc2)cc1-c1ccccc1C)C(=O)NS(=O)(=O)c1ccccc1 [Example 253, [4-(3-Pyridyloxymethyl)-2-(2-methylphenyl)benzoyl]methionine Phenylsulfonimide]	99%
CSCC[C@H](NC(=O)c1ccc(C=Cc2cccnc2)cc1-c1ccccc1C)C(=O)O [Example 276, {4-[2-(Pyrid-3-yl)ethenyl]-2-(2-methylphenyl)benzoyl}methionine Sodium Salt]	98%
COC(=O)[C@H](CCSC)NC(=O)c1ccc(NC(=O)c2cccnc2)cc1-c1ccccc1C [Example 300, [4-(3-Pyridylcarbonylamino)-2-(2-methylphenyl)benzoyl]methionine Methyl Ester]	22%
COC(=O)[C@H](CCSC)NC(=O)c1ccc(COc2cccnc2)cc1-c1ccccc1C [Example 307, [4-(3-Pyridyloxymethyl)-2-(2-methylphenyl)benzoyl]methionine Methyl Ester]	82%

Further lines, results first:

inhibition at 1 µM	Compound
89%	CSCC[C@H](NC(=O)c1ccc(C#Cc2cccnc2)cc1-c1ccccc1)C(=O)O [Example 218, {4-[(Pyrid-3-yl)ethynyl]-2-phenylbenzoyl}methionine Hydrochloride]
92%	CS(=O)(=O)CC[C@H](NC(=O)c1ccc(/C=C/c2cccnc2)cc1-c1ccccc1)C(=O)O [Example 220, N-{4-[2-(Pyrid-3-yl)ethenyl]-2-phenylbenzoyl]-2-amino-4-(methylsulfonyl)butanoic Acid]
23%	COC(=O)[C@H](CCSC)NC(=O)c1ccc(CNc2cccnc2)cc1-c1ccccc1 [Example 226, [4-(Pyrid-3-ylaminomethyl)-2-phenylbenzoyl]methionine Methyl Ester Hydrochloride]
94%	CSCC[C@H](NC(=O)c1ccc(CNc2cccnc2)cc1-c1ccccc1)C(=O)O [Example 227, [4-(Pyrid-3-ylaminomethyl)-2-phenylbenzoyl]methionine]
65%	CSCC[C@H](NC(=O)c1ccc(CS(=O)(=O)c2cccnc2)cc1-c1ccccc1)C(=O)O [Example 233, [4-(3-Pyridylsulfonylmethyl)-2-phenylbenzoyl]methionine]
4%	COC(=O)[C@H](CCSC)NC(=O)c1ccc(COc2cccnc2)cc1-c1ccccc1 [Example 234, [4-(3-Pyridyloxymethyl)-2-phenylbenzoyl]methionine Methyl Ester]
95%	CSCC[C@H](NC(=O)c1ccc(COc2cccnc2)cc1-c1ccccc1)C(=O)O [Example 235, [4-(3-Pyridyloxymethyl)-2-phenylbenzoyl]methionine]
98%	CSCC[C@H](NC(=O)c1ccc(CSc2cccnc2)cc1-c1ccccc1)C(=O)O [Example 237, [4-(3-Pyridylthiomethyl)-2-phenylbenzoyl]methionine]
97%	CS(=O)(=O)CC[C@H](NC(=O)c1ccc(CNc2cccnc2)cc1-c1ccccc1)C(=O)O [Example 239, N-[4-(3-Pyridylaminomethyl)-2-phenylbenzoyl]-2-amino-4-(methylsulfonyl)butanoic Acid]
98%	CSCC[C@H](NC(=O)c1ccc(OCc2cccnc2)cc1-c1ccccc1)C(=O)O [Example 240, [4-(3-Pyridylmethyloxy)-2-phenylbenzoyl-]methionine]
41%	CSCC[C@H](NC(=O)c1ccc(Sc2cccnc2)cc1-c1ccccc1)C(=O)O [Example 241]
21%	CCCC[C@H](NC(=O)c1ccc(COc2cccnc2)cc1-c1ccccc1)C(=O)O [Example 244, N-[4-(3-Pyridyloxymethyl)-2-phenylbenzoyl]norleucine]
50%	COCC[C@H](NC(=O)c1ccc(COc2cccnc2)cc1-c1ccccc1)C(=O)O [Example 245]
79%	CSCC[C@@H](CC(=O)O)NC(=O)c1ccc(COc2cccnc2)cc1-c1ccccc1 [Example 248]
77%	CSCC[C@H](NC(=O)c1ccc(COc2cccnc2)cc1-c1ccccc1)C(=O)NO [Example 249, [4-(3-Pyridyloxymethyl)-2-phenylbenzoyl]methionine Hydroxamic Acid]
98%	COc1ccncc1NCc1ccc(C(=O)N[C@@H](CCSC)C(=O)O)c(-c2ccccc2)c1 [Example 281, [4-(4-Methoxypyrid-3-ylaminomethyl)-2-phenylbenzoyl]methionine Sodium Salt]
43%	CSCC[C@H](NC(=O)c1ccc(C(O)c2ccncc2)cc1-c1ccccc1)C(=O)O (stereo partly shown) [Example 298, [4-(4-Pyridylhydroxymethyl)-2-phenylbenzoyl]methionine Sodium Salt]
98%	CSCC[C@H](NC(=O)c1ccc(NC(=O)c2cccnc2)cc1-c1ccccc1C)C(=O)O [Example 301, [4-(3-Pyridylcarbonylamino)-2-(2-methylphenyl)benzoyl]methionine]

Same assay, conditions: read-out: % inhibition at 1 × 10^−6 M

Compound	inhibition at 1 µM
CSCC[C@H](NC(=O)c1ccc(COc2cccnc2)cc1-c1ccccc1)c1nnc(C(F)(F)F)[nH]1 [Example 272, N-[3-(Methylthio)-1-(2-trifluoromethyl-1H-1,3,4-triazol-5-yl)propyl]-4-(3-pyridyloxymethyl)-2-phenylbenzamide]	96%
CSCC[C@H](NC(=O)c1ccc(/C=C/n2ccnc2)cc1-c1ccccc1C)C(=O)O [Example 278, {4-[2-(1H-1-Imidazolyl)ethenyl]-2-(2-methylphenyl)benzoyl}methionine Sodium Salt]	99%
CSCC[C@H](NC(=O)c1ccc(CCn2ccnc2)cc1-c1ccccc1C)C(=O)O [Example 279, {4-[2-(1H-1-Imidazolyl)ethyl]-2-(2-methylphenyl)benzoyl}methionine Sodium Salt]	99%
CSCC[C@H](NC(=O)c1ccc(CNc2cnccc2C)cc1-c1ccccc1)C(=O)O [Example 280]	98%
CSCC[C@H](NC(=O)c1ccc(NC(=O)c2cnccc2C(F)(F)F)cc1-c1ccccc1)C(=O)O [Example 282, [4-(4-Trifluoromethylpyrid-3-ylcarbonylamino)-2-phenylbenzoyl]methionine Sodium Salt]	76%
CSCC[C@H](NC(=O)c1ccc(C=Cc2cccnc2)cc1-c1ccccc1C)C(=O)OCCN(C)C [Example 294, {4-[2-(Pyrid-3-yl)ethenyl]-2-(2-methylphenyl)benzoyl}methionine Dimethylaminoethyl Ester]	98%
CSCC[C@H](NC(=O)c1ccc(C(O[Si](C)(C)C(C)(C)C)c2ccncc2)cc1-c1ccccc1)C(=O)O (stereo partly shown) [Example 297, [4-(4-Pyridyl-t-butyldimethylsilyloxymethyl)-2-phenylbenzoyl]methionine Sodium Salt]	65%
CSCC[C@H](NC(=O)c1ccc(COc2cccnc2)cc1-c1ccccc1C(F)(F)F)C(=O)O [Example 304, [4-(3-Pyridyloxymethyl)-2-(2-trifluoromethylphenyl)benzoyl]methionine]	99%
